US11529321B2, “Use of aminomethylenecyclohexane-1,3-dione compound” (WIGEN BIOMEDICINE TECHNOLOGY (SHANGHAI) CO., LTD., priority 2017, dated 2022)

The compounds below were run against LC3B (Homo sapiens (Human), UniProt Q9GZQ8) (assay: Fluorescence polarization assay, GST-LC3B with FITC-labeled peptide).
Description: Then the resulting mixture was incubated at 25° C. in the dark.

Row | Compound | IC50 [µM]
1 | O=C1CC(c2ccccc2)CC(=O)C1=CNc1ccccc1 (centres unmarked) [Compound 11, 5-Phenyl-2-((Phenylamino)Methylene)-Cyclohexane-1,3-Dione] | 15 to 100
2 | CN(C)C=C1C(=O)CC2(CC2)CC1=O [Compound 22] | 100 to 1000
3 | CNC(=O)NC=C1C(=O)CCCC1=O [Compound 25] | 100 to 1000
4 | Cc1n[nH]c(NC=C2C(=O)CC(C)(C)CC2=O)c1-c1ccccc1 [Compound 17] | 100 to 1000
5 | O=c1c(=CNc2ccccc2)c(=O)c2cccc3cccc1c32 [Compound 61] | 15 to 100
6 | CC1(C)CC(=O)C(=CNCCN2CCN(C(=O)Cc3ccc(F)cc3)CC2)C(=O)C1 [Compound 46] | 100 to 1000
7 | Cc1ccc(S(=O)(=O)NNC=C2C(=O)CCCC2=O)cc1 [Compound 26] | 100 to 1000
8 | CN(C)C=C1C(=O)CC(c2ccccc2)CC1=O (centres unmarked) [Compound 1, 2-((Dimethylamino)Methylene)-5-Phenyl-Cyclohexane-1,3-Dione] | 3 to 15
